Legend:
[1] = tested on: KRAS G12D mutant human gastric cancer cell AGS; experiment: 3D cell proliferation inhibition assay, AGS; format: cell-based; conditions: 168 h, 7 days, CTG, class symbols
Summary of the method: (§1)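 Cells were seeded at 5×10^2 cells/well in low-adsorption plates with compound (10000–0.026 nM final, 0.2% DMSO) and grown for 7 days at 37 °C, 5% CO2. Viability was read by CTG luminescence after 60 min at room temperature. IC50 came from log concentration–inhibition curve fits, normalised to DMSO and medium-only controls.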

phosphorylated ERK = experiment: KRAS G12D-mediated phosphorylated ERK inhibition assay (AlphaLISA), A427; format: cell-based; conditions: Homo sapiens, A-427; A427 cells; class symbols; read-out: pERK (A427) IC50
Method: The relative amounts of phosphorylated ERK and total ERK in the samples were separately determined according to the test methods provided in the instructions of the AlphaLISA SureFire Ultra p-ERK 1/2 (Thr202/Tyr204) kit (PerkinElmer) and the AlphaLISA SureFire Ultra TotalERK 1/2 kit (PerkinElmer).
The experimental procedures for the assay of the phosphorylated ERK and total ERK were as follows: 10 μL of each sample was added to a 384-well plate (Greiner), and 5 μL of the prepared Acceptor Beads (PerkinElmer) mixed solution (containing 50× Acceptor Beads 615, Activation Buffer, and equal volumes of Reaction Buffer 1 and Reaction Buffer 2) was added to each well; and the plate was incubated at room temperature for 2 h. Then 5 μL of 1× Donor Beads (PerkinElmer) diluted with Dilution Buffer was added to each well, and the plate was incubated at room temperature overnight. After the incubation was completed, AlphaLISA signal values for the phosphorylated ERK and total ERK were separately measured on an EnVision microplate reader (PerkinElmer) in the AlphaScreen standard mode. The following formula was adopted: phosphorylated ERK correction value=phosphorylated ERK AlphaLISA signal value/total ERK AlphaLISA signal value. The relative ratio of the phosphorylated ERK for each sample was calculated. The percentage inhibition rates of the compounds on the phosphorylated ERK at each concentration were calculated by comparing the relative value of the phosphorylated ERK with that of the DMSO control well. Then non-linear curve fittings for logarithmic concentration-inhibition rate were performed by the GraphPad Prism 8 analysis software, and the IC50 values of the compounds on the inhibition of the phosphorylated ERK were obtained (Table 2).

[2] = target: T1, Human KRAS G12D 6His-tagged (Homo sapiens, UniProt P01116, G12D); experiment: KRAS-G12D/GTP binding assay (HTRF); conditions: class symbols
T1 construct: purchased PerkinElmer
T1 sequence (P01116 1-188 isoform P01116-2 G12D): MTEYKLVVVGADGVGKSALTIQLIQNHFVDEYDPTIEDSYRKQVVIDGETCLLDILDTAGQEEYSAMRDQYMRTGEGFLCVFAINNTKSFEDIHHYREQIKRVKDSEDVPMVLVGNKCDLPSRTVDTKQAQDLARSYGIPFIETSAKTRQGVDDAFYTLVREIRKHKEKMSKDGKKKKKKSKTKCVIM
Summary of the method: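 HTRF kit format: 6His-tagged KRAS G12D incubated with compound (final 0.02-5000 nM, 0.5% DMSO), anti-6His Eu cryptate antibody and GTP Red reagent for 1 h at 25° C. 665/620 nm ratio versus control gave inhibition rates; IC50 by nonlinear fit.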

[3] = tested on: KRAS G12D mutant human lung cancer cell A427; experiment: 3D cell proliferation inhibition assay, A427; format: cell-based; conditions: A-427, 168 h, A427, 7 days, CTG, class symbols
Summary of the method: as §1

| Structure (SMILES) | IC50 [1] [nM] | IC50 (phosphorylated ERK) [nM] | IC50 [2] [nM] | IC50 [3] [nM] |
| --- | --- | --- | --- | --- |
| C#Cc1c(F)ccc2cc(O)cc(-c3ncc4c(N5CC6CCC(C5)N6)nc(OCC5(CN6CCC(COCC7CCN(C(=O)c8ccc(Cl)c(N9CCC(=O)NC9=O)c8)CC7)CC6)CC5)nc4c3F)c12 [Example 13, 1-(5-(4-(((1-((1-(((4-(3,8-diazabicyclo[3.2.1]octan-3-yl)-7-(8-ethynyl-7-fluoro-3-hydroxynaphthalen-1-yl)-8-fluoropyrido[4,3-d]pyrimidin-2-yl)oxy)methyl)cyclopropyl)methyl)piperidin-4-yl)methoxy)methyl)piperidine-1-carbonyl)-2-chlorophenyl)dihydropyrimidine-2,4(1H,3H)-dione] | ≤ 50 | ≤ 50 | ≤ 50 | 50 to 100 |
| C#Cc1c(F)ccc2cc(O)cc(-c3ncc4c(N5CC6CCC(C5)N6)nc(OCC5(CN6CCN(CCCCC7CCN(C(=O)c8ccc(Cl)c(N9CCC(=O)NC9=O)c8)CC7)CC6)CC5)nc4c3F)c12 [Example 5, 1-(5-(4-(4-(4-((1-(((4-(3,8-diazabicyclo[3.2.1]octan-3-yl)-7-(8-ethynyl-7-fluoro-3-hydroxynaphthalen-1-yl)-8-fluoropyrido[4,3-d]pyrimidin-2-yl)oxy)methyl)cyclopropyl)methyl)piperazin-1-yl)butyl)piperidine-1-carbonyl)-2-chlorophenyl)dihydropyrimidine-2,4(1H,3H)-dione] | ≤ 50 | ≤ 50 | ≤ 50 | 50 to 100 |
| C#Cc1c(F)ccc2cc(O)cc(-c3ncc4c(N5CC6CCC(C5)N6)nc(OCC5(CN6CCN(CCCC7CCC8(CC7)CCN(C(=O)c7ccc(Cl)c(N9CCC(=O)NC9=O)c7)CC8)CC6)CC5)nc4c3F)c12 [Example 7, 1-(5-(9-(3-(4-((1-(((4-(3,8-diazabicyclo[3.2.1]octan-3-yl)-7-(8-ethynyl-7-fluoro-3-hydroxynaphthalen-1-yl)-8-fluoropyrido[4,3-d]pyrimidin-2-yl)oxy)methyl)cyclopropyl)methyl)piperazin-1-yl)propyl)-3-azaspiro[5.5]undecane-3-carbonyl)-2-chlorophenyl)dihydropyrimidine-2,4(1H,3H)-dione] | ≤ 50 | ≤ 50 | ≤ 50 | ≤ 50 |
| C#Cc1c(F)ccc2cc(O)cc(-c3ncc4c(N5CC6CCC(C5)N6)nc(OCC5(CN6CCN(CC7CCC8(CC7)CCN(C(=O)c7ccc(C)c(N9CCC(=O)NC9=O)c7)CC8)CC6)CC5)nc4c3F)c12 [Example 36, 1-(5-(9-((4-((1-(((4-(3,8-diazabicyclo[3.2.1]octan-3-yl)-7-(8-ethynyl-7-fluoro-3-hydroxynaphthalen-1-yl)-8-fluoropyrido[4,3-d]pyrimidin-2-yl)oxy)methyl)cyclopropyl)methyl)piperazin-1-yl)methyl)-3-azaspiro[5.5]undecane-3-carbonyl)-2-methylphenyl)dihydropyrimidine-2,4(1H,3H)-dione] | ≤ 50 | ≤ 50 | ≤ 50 | ≤ 50 |
| C#Cc1c(F)ccc2cc(O)cc(-c3ncc4c(N5CC6CCC(C5)N6)nc(OCC5(CN6CCN(CC7CCC8(CC7)CCN(C(=O)c7ccc(OC)c(N9CCC(=O)NC9=O)c7)CC8)CC6)CC5)nc4c3F)c12 [Example 14, 1-(5-(9-((4-((1-(((4-(3,8-diazabicyclo[3.2.1]octan-3-yl)-7-(8-ethynyl-7-fluoro-3-hydroxynaphthalen-1-yl)-8-fluoropyrido[4,3-d]pyrimidin-2-yl)oxy)methyl)cyclopropyl)methyl)piperazin-1-yl)methyl)-3-azaspiro[5.5]undecane-3-carbonyl)-2-methoxyphenyl)dihydropyrimidine-2,4(1H,3H)-dione] | ≤ 50 | ≤ 50 | ≤ 50 | ≤ 50 |
| C#Cc1c(F)ccc2cc(O)cc(-c3ncc4c(N5CC6CCC(C5)N6)nc(OCC5(CN6CCN(CCCC7CCN(C(=O)c8ccc(Cl)c(N9CCC(=O)NC9=O)c8)CC7)CC6)CCC5)nc4c3F)c12 [Example 24, 1-(5-(4-(3-(4-((1-(((4-(3,8-diazabicyclo[3.2.1]octan-3-yl)-7-(8-ethynyl-7-fluoro-3-hydroxynaphthalen-1-yl)-8-fluoropyrido[4,3-d]pyrimidin-2-yl)oxy)methyl)cyclobutyl)methyl)piperazin-1-yl)propyl)piperidine-1-carbonyl)-2-chlorophenyl)dihydropyrimidine-2,4(1H,3H)-dione] | 50 to 100 | ≤ 50 | ≤ 50 | 100 to 500 |
| C#Cc1c(F)ccc2cc(O)cc(-c3ncc4c(N5CC6CCC(C5)N6)nc(OCC5(CN6CCC(CCOCC7CCN(C(=O)c8ccc(Cl)c(N9CCC(=O)NC9=O)c8)CC7)CC6)CC5)nc4c3F)c12 [Example 10] | ≤ 50 | ≤ 50 | ≤ 50 | 100 to 500 |
| C#Cc1c(F)ccc2cc(O)cc(-c3ncc4c(N5CC6CCC(C5)N6)nc(OCC5(CN6CCC(COCCC7CCN(C(=O)c8ccc(Cl)c(N9CCC(=O)NC9=O)c8)CC7)CC6)CC5)nc4c3F)c12 [Example 21, 1-(5-(4-(2-((1-((1-(((4-(3,8-diazabicyclo[3.2.1]octan-3-yl)-7-(8-ethynyl-7-fluoro-3-hydroxynaphthalen-1-yl)-8-fluoropyrido[4,3-d]pyrimidin-2-yl)oxy)methyl)cyclopropyl)methyl)piperidin-4-yl)methoxy)ethyl)piperidine-1-carbonyl)-2-chlorophenyl)dihydropyrimidine-2,4(1H,3H)-dione] | ≤ 50 | ≤ 50 | ≤ 50 | 100 to 500 |
| C#Cc1c(F)ccc2cc(O)cc(-c3ncc4c(N5CC6CCC(C5)N6)nc(OC[C@@H]5CCCN5CCC5CCC6(CC5)CCN(C(=O)c5ccc(Cl)c(N7CCC(=O)NC7=O)c5)CC6)nc4c3F)c12 [Example 32, 1-(5-(9-(2-((S)-2-(((4-(3,8-diazabicyclo[3.2.1]octan-3-yl)-7-(8-ethynyl-7-fluoro-3-hydroxynaphthalen-1-yl)-8-fluoropyrido[4,3-d]pyrimidin-2-yl)oxy)methyl)pyrrolidin-1-yl)ethyl)-3-azaspiro[5.5]undecane-3-carbonyl)-2-chlorophenyl)dihydropyrimidine-2,4(1H,3H)-dione] | 1000 to 10000 | 1000 to 10000 | 500 to 1000 | 1000 to 10000 |
| C#Cc1c(F)ccc2cc(O)cc(-c3ncc4c(N5CC6CCC(C5)N6)nc(OCC56CC(CN7CCN(CC8CCC9(CC8)CCN(C(=O)c8ccc(Cl)c(N%10CCC(=O)NC%10=O)c8)CC9)CC7)(C5)C6)nc4c3F)c12 [Example 33, 1-(5-(9-((4-((3-(((4-(3,8-diazabicyclo[3.2.1]octan-3-yl)-7-(8-ethynyl-7-fluoro-3-hydroxynaphthalen-1-yl)-8-fluoropyrido[4,3-d]pyrimidin-2-yl)oxy)methyl)bicyclo[1.1.1]pentan-1-yl)methyl)piperazin-1-yl)methyl)-3-azaspiro[5.5]undecane-3-carbonyl)-2-chlorophenyl)dihydropyrimidine-2,4(1H,3H)-dione] | ≤ 50 | ≤ 50 | 100 to 500 | 100 to 500 |

Source: patent US20260166159A1, “KRAS G12D DEGRADATION AGENT, AND PREPARATION METHOD AND USE THEREFOR” (LEADINGTAC PHARMACEUTICAL (SHAOXING) CO., LTD., priority 2022, published 2026)
